According to ChEMBL document CHEMBL4011593, “Development of 2, 4-diaminoquinazoline derivatives as potent PAK4 inhibitors by the core refinement strategy” (Eur J Med Chem, 2017):

Columns and labels:
[1] = biological target: T1, Serine/threonine-protein kinase PAK 4 (Homo sapiens, UniProt O96013); assay: Inhibition of myc-tagged PAK4 (unknown origin) using histone H3 as substrate preincubated for 30 mins followed by substrate addition measured for 30 mins in presence of [gamma-32P]ATP by autoradiographic method
[2] = biological target: T1, Serine/threonine-protein kinase PAK 4; assay: Inhibition of recombinant human N-terminal GST-fused PAK4 (1 to 591 residues) expressed in baculovirus expression system using S2 as substrate measured after 40 mins by HTRF assay
[3] = Oral bioavailability in metastatic solid tumor patient; type: ADME, organism-based; conditions: human, in vivo

T1 sequence (O96013 whole entry, the tested form may be a part): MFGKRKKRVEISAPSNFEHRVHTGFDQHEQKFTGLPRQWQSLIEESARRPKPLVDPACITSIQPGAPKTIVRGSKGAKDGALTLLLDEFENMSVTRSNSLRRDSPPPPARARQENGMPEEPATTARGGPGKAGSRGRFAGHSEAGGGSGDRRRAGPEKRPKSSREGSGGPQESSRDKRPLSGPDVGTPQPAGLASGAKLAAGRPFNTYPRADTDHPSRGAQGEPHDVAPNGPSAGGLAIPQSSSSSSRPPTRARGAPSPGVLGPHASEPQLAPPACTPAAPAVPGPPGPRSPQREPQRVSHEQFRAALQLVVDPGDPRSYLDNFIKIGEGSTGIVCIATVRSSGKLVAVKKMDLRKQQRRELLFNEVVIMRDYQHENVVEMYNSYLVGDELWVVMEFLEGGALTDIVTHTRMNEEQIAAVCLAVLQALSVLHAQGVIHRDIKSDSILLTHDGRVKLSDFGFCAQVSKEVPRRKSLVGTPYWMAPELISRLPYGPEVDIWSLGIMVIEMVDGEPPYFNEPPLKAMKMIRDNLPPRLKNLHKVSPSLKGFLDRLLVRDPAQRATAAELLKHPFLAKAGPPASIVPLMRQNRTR

Compound	IC50 [2]	further results
COc1cccc(Nc2nc(NCC3CCCO3)c3ccccc3n2)c1 (configuration not stated)	–	IC50 [1]: 14.5 µM
Clc1ccc2nc(Nc3ccc4cn[nH]c4c3)nc(NCCc3c[nH]c4ccccc34)c2c1	2.04 µM	–
Clc1ccc2nc(Nc3ccc4[nH]cnc4c3)nc(NCCc3c[nH]c4ccccc34)c2c1	3.07 µM	–
Cc1cc(Nc2nc(NCCc3c[nH]c4ccccc34)c3cc(Cl)ccc3n2)cc2cn[nH]c12	2.33 µM	–
Cc1nc(Nc2n[nH]c3c2CN(C(=O)N[C@H](CN(C)C)c2ccccc2)C3(C)C)c2sccc2n1 [PF-03758309]	–	bioavailability [3]: 1%

Continued by falling IC50 [2], values first:

IC50 [2]	Compound	further results
1.76 µM	O=C1Cc2cc(Nc3nc(NCCc4c[nH]c5ccccc45)c4cc(Cl)ccc4n3)ccc2N1	–
1.51 µM	COc1ccc2nc(NCCc3c[nH]c4ccccc34)nc(Nc3ccc4[nH]ncc4c3)c2c1	–
1.16 µM	Clc1ccc2nc(Nc3ccc4[nH]nnc4c3)nc(NCCc3c[nH]c4ccccc34)c2c1	–
1.06 µM	Clc1ccc2nc(Nc3cc(Br)c4[nH]ncc4c3)nc(NCCc3c[nH]c4ccccc34)c2c1	–
0.937 µM	Clc1ccc2nc(Nc3cc(Cl)c4[nH]ncc4c3)nc(NCCc3c[nH]c4ccccc34)c2c1	–
0.633 µM	Clc1ccc2nc(Nc3cnc4[nH]ncc4c3)nc(NCCc3c[nH]c4ccccc34)c2c1	–
0.483 µM	COc1ccc2c(Nc3ccc4[nH]ncc4c3)nc(NCCc3c[nH]c4ccccc34)nc2c1	–
